# Results: ChEMBL document CHEMBL1143041, “On the cytotoxicity and status of oxidative stress of two novel synthesized tri-aza macrocyclic diamides as studied in the V79 cell lines” (Bioorg Med Chem, 2007)
# Legend:
# V79 [1] = experiment: Effect on malondialdehyde level in V79 cells at 30 uM after 24 hrs; format: functional, Cricetulus griseus
# V79 [2] = experiment: Effect on 8-hydroxy-deoxyguanosine level in V79 cells at 30 uM after 24 hrs; format: functional, Cricetulus griseus
# V79 [3] = experiment: Effect on superoxide dismutase activity in V79 cells at 30 uM after 24 hrs; format: cell-based; conditions: Cricetulus griseus
# V79 [4] = experiment: Effect on glutathione peroxidase activity in V79 cells at 30 uM after 24 hrs; format: cell-based; conditions: Cricetulus griseus
# V79 [5] = experiment: Effect on catalase activity in V79 cells at 30 uM after 24 hrs; format: cell-based; conditions: Cricetulus griseus
# V79 [6] = experiment: Effect on dityrosine level in V79 cells at 30 uM after 24 hrs; format: functional, Cricetulus griseus
# V79 [7] = experiment: Effect on malondialdehyde level in V79 cells at 2 mM after 24 hrs; format: functional, Cricetulus griseus
# V79 [8] = experiment: Effect on V79 cells assessed as viable cells at 2 mM in presence of 30 uM alpha-tocopherol; format: functional, Cricetulus griseus
# V79 [9] = experiment: Effect on malondialdehyde level in V79 cells at 8 mM after 24 hrs in presence of 30 uM alpha-tocopherol; format: functional, Cricetulus griseus
# V79 [10] = experiment: Effect on V79 cells assessed as apoptotic cells at 2 mM; format: functional, Cricetulus griseus
# V79 [11] = experiment: Effect on superoxide dismutase activity in V79 cells at 8 mM after 24 hrs in presence of 30 uM alpha-tocopherol; format: cell-based; conditions: Cricetulus griseus
# V79 [12] = experiment: Effect on V79 cells assessed as viable cells at 4 mM in presence of 30 uM alpha-tocopherol; format: functional, Cricetulus griseus
# V79 [13] = experiment: Effect on V79 cells assessed as viable cells at 4 mM; format: functional; conditions: Cricetulus griseus, read-out: Activity
# V79 [14] = experiment: Effect on dityrosine level in V79 cells at 8 mM after 24 hrs; format: functional, Cricetulus griseus
# V79 [15] = experiment: Effect on 8-hydroxy-deoxyguanosine level in V79 cells at 8 mM after 24 hrs; format: functional, Cricetulus griseus
# V79 [16] = experiment: Effect on catalase activity in V79 cells at 8 mM after 24 hrs in presence of 30uM alpha-tocopherol; format: cell-based; conditions: Cricetulus griseus
# V79 [17] = experiment: Effect on superoxide dismutase activity in V79 cells at 0.5 mM after 24 hrs; format: cell-based; conditions: Cricetulus griseus
# V79 [18] = experiment: Increase in catalase activity in V79 cells at 2 mM after 24 hrs; format: cell-based; conditions: Cricetulus griseus
# V79 [19] = experiment: Increase in superoxide dismutase activity in V79 cells at 1 mM after 24 hrs; format: cell-based; conditions: Cricetulus griseus
# V79 [20] = experiment: Effect on glutathione peroxidase activity in V79 cells at 8 mM after 24 hrs in presence of 30 uM alpha-tocopherol; format: cell-based; conditions: Cricetulus griseus
# V79 [21] = experiment: Effect on malondialdehyde level in V79 cells at 4 mM after 24 hrs; format: functional, Cricetulus griseus
# V79 [22] = experiment: Effect on V79 cells assessed as apoptotic cells at 2 mM in presence of 30 uM alpha-tocopherol; format: functional, Cricetulus griseus
# V79 [23] = experiment: Increase in glutathione peroxidase activity in V79 cells at 4 mM after 24 hrs; format: cell-based; conditions: Cricetulus griseus
# V79 [24] = experiment: Effect on malondialdehyde level in V79 cells at 0.5 mM after 24 hrs; format: functional, Cricetulus griseus
# V79 [25] = experiment: Effect on dityrosine level in V79 cells at 8 mM after 24 hrs in presence of 30 uM alpha-tocopherol; format: functional, Cricetulus griseus
# V79 [26] = experiment: Effect on V79 cells assessed as necrotic cells at 2 mM; format: functional, Cricetulus griseus
# V79 [27] = experiment: Effect on 8-hydroxy-deoxyguanosine level in V79 cells at 0.5 mM after 24 hrs; format: functional, Cricetulus griseus
# V79 [28] = experiment: Effect on dityrosine level in V79 cells at 1 mM after 24 hrs; format: functional, Cricetulus griseus
# V79 [29] = experiment: Effect on glutathione peroxidase activity in V79 cells at 0.5 mM after 24 hrs; format: cell-based; conditions: Cricetulus griseus
# V79 [30] = experiment: Effect on 8-hydroxy-deoxyguanosine level in V79 cells at 4 mM after 24 hrs; format: functional, Cricetulus griseus
# V79 [31] = experiment: Effect on V79 cells assessed as apoptotic cells at 4 mM in presence of 30 uM alpha-tocopherol; format: functional, Cricetulus griseus
# V79 [32] = experiment: Effect on 8-hydroxy-deoxyguanosine level in V79 cells at 1 mM after 24 hrs; format: functional, Cricetulus griseus
# V79 [33] = experiment: Effect on dityrosine level in V79 cells at 0.5 mM after 24 hrs; format: functional, Cricetulus griseus
# [34] = Cytotoxicity against V79 cells assessed as viability at 8 mM after 24 hrs by MTT assay; format: cell-based, Cricetulus griseus; conditions: chinese hamster, read-out: Activity
# V79 [35] = experiment: Increase in glutathione peroxidase activity in V79 cells at 2 mM after 24 hrs; format: cell-based; conditions: Cricetulus griseus
# V79 [36] = experiment: Increase in catalase activity in V79 cells at 1 mM after 24 hrs; format: cell-based; conditions: Cricetulus griseus
# V79 [37] = experiment: Increase in catalase activity in V79 cells at 4 mM after 24 hrs; format: cell-based; conditions: Cricetulus griseus
# V79 [38] = experiment: Stimulation of ROS generation in V79 cells; format: functional, cell-based; conditions: Cricetulus griseus
# V79 [39] = experiment: Increase in glutathione peroxidase activity in V79 cells at 8 mM after 24 hrs; format: cell-based; conditions: Cricetulus griseus
# V79 [40] = experiment: Effect on dityrosine level in V79 cells at 2 mM after 24 hrs; format: functional, Cricetulus griseus
# V79 [41] = experiment: Effect on V79 cells assessed as apoptotic cells at 4 mM; format: functional, Cricetulus griseus
# V79 [42] = experiment: Effect on dityrosine level in V79 cells at 4 mM after 24 hrs; format: functional, Cricetulus griseus
# V79 [43] = experiment: Increase in glutathione peroxidase activity in V79 cells at 1 mM after 24 hrs; format: cell-based; conditions: Cricetulus griseus
# V79 [44] = experiment: Increase in superoxide dismutase activity in V79 cells at 8 mM after 24 hrs; format: cell-based; conditions: Cricetulus griseus
# V79 [45] = experiment: Effect on V79 cells assessed as necrotic cells at 4 mM; format: functional, Cricetulus griseus
# V79 [46] = experiment: Effect on 8-hydroxy-deoxyguanosine level in V79 cells at 2 mM after 24 hrs; format: functional, Cricetulus griseus
# V79 [47] = experiment: Increase in catalase activity in V79 cells at 8 mM after 24 hrs; format: cell-based; conditions: Cricetulus griseus
# V79 [48] = experiment: Increase in superoxide dismutase activity in V79 cells at 2 mM after 24 hrs; format: cell-based; conditions: Cricetulus griseus
# V79 [49] = experiment: Effect on V79 cells assessed as viable cells at 2 mM; format: functional; conditions: Cricetulus griseus, read-out: Activity
# V79 [50] = experiment: Effect on malondialdehyde level in V79 cells at 1 mM after 24 hrs; format: functional, Cricetulus griseus
# V79 [51] = experiment: Effect on catalase activity in V79 cells at 0.5 mM after 24 hrs; format: cell-based; conditions: Cricetulus griseus
# V79 [52] = experiment: Effect on malondialdehyde level in V79 cells at 8 mM after 24 hrs; format: functional, Cricetulus griseus
# V79 [53] = experiment: Increase in superoxide dismutase activity in V79 cells at 4 mM after 24 hrs; format: cell-based; conditions: Cricetulus griseus
# V79 [54] = experiment: Effect on 8-hydroxy-deoxyguanosine level in V79 cells at 8 mM after 24 hrs in presence of 30 uM alpha-tocopherol; format: functional, Cricetulus griseus
smiles,measurement,setting,value
Cc1c(C)c2c(c(C)c1O)CC[C@@](C)(CCC[C@H](C)CCC[C@H](C)CCCC(C)C)O2 [ALPHA-TOCOPHEROL],Activity,V79 [1],7.51 nM/mg
same,Activity,V79 [2],3.51
same,Activity,V79 [3],13.2 U/mg
same,Activity,V79 [4],14.1 nmol/min/mg
same,Activity (microM/min/mg),V79 [5],4.5
same,Activity,V79 [6],0.42 nM/mg
Cc1ccc2c(c1)[S+]([O-])c1cc(C)ccc1OCC(=O)NCCNCCNC(=O)CO2,Activity,V79 [7],25.16 nM/mg
same,Activity,V79 [8],71.2%
same,Activity,V79 [9],17.63 nM/mg
same,Activity,V79 [10],40.2%
same,Activity,V79 [11],23.5 U/mg
same,Activity,V79 [12],52.6%
same,viability at 4000 µM,V79 [13],41.2%
same,Activity,V79 [14],6.41 nM/mg
same,Activity,V79 [15],9.1
same,Activity (microM/min/mg),V79 [16],10.2
same,Activity,V79 [17],14.4 U/mg
same,Activity (microM/min/mg),V79 [18],15.3
same,Activity,V79 [19],22.1 U/mg
same,Activity,V79 [20],22.4 nmol/min/mg
same,Activity,V79 [21],36.63 nM/mg
same,Activity,V79 [22],28.5%
same,Activity,V79 [23],33.4 nmol/min/mg
same,Activity,V79 [24],8.72 nM/mg
same,Activity,V79 [25],2.21 nM/mg
same,Activity,V79 [26],4.6%
same,Activity,V79 [27],4.7
same,Activity,V79 [28],0.75 nM/mg
same,Activity,V79 [29],16.6 nmol/min/mg
same,Activity,V79 [30],8.5
same,Activity,V79 [31],32.7%
same,Activity,V79 [32],5.5
same,Activity,V79 [33],0.54 nM/mg
same,"viability at 24 h, 8000 µM",[34],24%
same,Activity,V79 [35],26.3 nmol/min/mg
same,Activity (microM/min/mg),V79 [36],9.71
same,Activity (microM/min/mg),V79 [37],27.2
same,Activity,V79 [38],Dose-dependent effect
same,Activity,V79 [39],41.1 nmol/min/mg
same,Activity,V79 [40],1.61 nM/mg
same,Activity,V79 [41],51.4%
same,Activity,V79 [42],3.88 nM/mg
same,Activity,V79 [43],22.1 nmol/min/mg
same,Activity,V79 [44],56.4 U/mg
same,Activity,V79 [45],6.3%
same,Activity,V79 [46],7.4
same,Activity (microM/min/mg),V79 [47],35.7
same,Activity,V79 [48],36.4 U/mg
same,viability at 2000 µM,V79 [49],54.4%
same,Activity,V79 [50],16.53 nM/mg
same,Activity (microM/min/mg),V79 [51],6.81
same,Activity,V79 [52],55.12 nM/mg
same,Activity,V79 [53],48.7 U/mg
same,Activity,V79 [54],6.4
Cc1ccc2c(c1)Sc1cc(C)ccc1OCC(=O)NCCNCCNC(=O)CO2,Activity,V79 [7],21.46 nM/mg
same,Activity,V79 [8],80.5%
same,Activity,V79 [9],15.01 nM/mg
same,Activity,V79 [10],25.1%
same,Activity,V79 [11],21.8 U/mg
same,Activity,V79 [12],69.1%
same,viability at 4000 µM,V79 [13],58.2%
same,Activity,V79 [14],8.27 nM/mg
same,Activity,V79 [15],6.9
same,Activity (microM/min/mg),V79 [16],8.77
same,Activity,V79 [17],18.8 U/mg
same,Activity (microM/min/mg),V79 [18],12.2
same,Activity,V79 [19],21.3 U/mg
same,Activity,V79 [20],20.8 nmol/min/mg
same,Activity,V79 [21],35.691 nM/mg
same,Activity,V79 [22],17.4%
same,Activity,V79 [23],37.5 nmol/min/mg
same,Activity,V79 [24],11.17 nM/mg
same,Activity,V79 [25],1.43 nM/mg
same,Activity,V79 [26],2.6%
same,Activity,V79 [27],4.4
same,Activity,V79 [28],1.19 nM/mg
same,Activity,V79 [29],18.6 nmol/min/mg
same,Activity,V79 [30],7.3
same,Activity,V79 [31],22.6%
same,Activity,V79 [32],5
same,Activity,V79 [33],0.74 nM/mg
same,Activity,V79 [35],30.6 nmol/min/mg
same,Activity (microM/min/mg),V79 [36],8.47
same,Activity (microM/min/mg),V79 [37],22.4
same,Activity,V79 [38],Dose-dependent effect
same,Activity,V79 [39],47.6 nmol/min/mg
same,Activity,V79 [40],2.45 nM/mg
same,Activity,V79 [41],37.3%
same,Activity,V79 [42],4.31 nM/mg
same,Activity,V79 [43],23.3 nmol/min/mg
same,Activity,V79 [44],49.2 U/mg
same,Activity,V79 [45],4.1%
same,Activity,V79 [46],5.8
same,Activity (microM/min/mg),V79 [47],27.2
same,Activity,V79 [48],31.2 U/mg
same,viability at 2000 µM,V79 [49],71.4%
same,Activity,V79 [50],13.77 nM/mg
same,Activity (microM/min/mg),V79 [51],5.48
same,Activity,V79 [52],52.55 nM/mg
same,Activity,V79 [53],40.1 U/mg
same,Activity,V79 [54],5.76
